Assay results taken from ChEMBL document CHEMBL1821651, “Structure-activity relationships of phosphoinositide 3-kinase (PI3K)/mammalian target of rapamycin (mTOR) dual inhibitors: investigations of various 6,5-heterocycles to improve metabolic stability” (J Med Chem, 2011).
Converted amounts (≈) assume the structure as drawn.

Key:
[1] = biological target: Serine/threonine-protein kinase mTOR (Homo sapiens, UniProt P42345); test: Inhibition of recombinant N-terminal GST-tagged mTOR-mediated 4E-BP1 phosphorylation after 60 mins by TR-FRET assay
[2] = biological target: Phosphatidylinositol 4,5-bisphosphate 3-kinase catalytic subunit alpha isoform (Homo sapiens, UniProt P42336); test: Inhibition of human PI3Kalpha using PI(4,5)P2 as substrate after 20 mins by alphascreen assay in presence of 20 uM ATP
[3] = biological target: T1, Phosphatidylinositol 4,5-bisphosphate 3-kinase catalytic subunit delta isoform (Homo sapiens, UniProt O00329); test: Inhibition of human N-terminal His-tagged PI3Kdelta expressed in insect Sf9 cells using PI(4,5)P2 as substrate after 20 mins by alphascreen assay in presence of 8 uM ATP
T1 sequence (O00329 whole entry): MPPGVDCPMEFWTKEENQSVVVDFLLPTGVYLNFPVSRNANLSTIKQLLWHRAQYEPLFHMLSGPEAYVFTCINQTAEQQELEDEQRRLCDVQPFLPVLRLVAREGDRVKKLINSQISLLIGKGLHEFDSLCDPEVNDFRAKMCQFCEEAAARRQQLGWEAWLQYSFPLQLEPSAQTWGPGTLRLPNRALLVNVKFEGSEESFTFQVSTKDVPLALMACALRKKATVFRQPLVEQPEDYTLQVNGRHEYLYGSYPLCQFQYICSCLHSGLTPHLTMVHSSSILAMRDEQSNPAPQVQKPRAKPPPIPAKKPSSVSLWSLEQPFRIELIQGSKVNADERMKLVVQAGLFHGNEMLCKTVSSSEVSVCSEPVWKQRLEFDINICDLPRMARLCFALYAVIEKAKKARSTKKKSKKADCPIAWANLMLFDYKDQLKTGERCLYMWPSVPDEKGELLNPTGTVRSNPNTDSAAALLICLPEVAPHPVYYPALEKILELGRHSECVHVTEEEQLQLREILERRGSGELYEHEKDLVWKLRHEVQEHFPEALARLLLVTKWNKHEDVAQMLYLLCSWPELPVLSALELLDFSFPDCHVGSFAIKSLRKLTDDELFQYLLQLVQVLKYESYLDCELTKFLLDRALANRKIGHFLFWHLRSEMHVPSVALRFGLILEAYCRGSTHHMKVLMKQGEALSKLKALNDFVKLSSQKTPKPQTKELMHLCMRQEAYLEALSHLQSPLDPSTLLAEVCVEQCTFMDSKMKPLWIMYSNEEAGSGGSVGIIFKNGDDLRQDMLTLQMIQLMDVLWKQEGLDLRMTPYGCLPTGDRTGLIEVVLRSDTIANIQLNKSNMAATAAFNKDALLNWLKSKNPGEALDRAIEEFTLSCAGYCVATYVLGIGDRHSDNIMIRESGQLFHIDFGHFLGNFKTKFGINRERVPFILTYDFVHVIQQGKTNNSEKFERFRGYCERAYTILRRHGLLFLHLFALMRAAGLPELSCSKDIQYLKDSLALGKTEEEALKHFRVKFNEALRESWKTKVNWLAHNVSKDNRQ

[4] = Elimination half life in iv dosed Sprague-Dawley rat; type: ADME, organism-based; settings: in vivo, read-out: beta t1/2 (converted)
[5] = Oral bioavailability in Sprague-Dawley rat at 2 mg/kg; type: ADME, organism-based; settings: in vivo
[6] = Ratio of drug level in tumor to plasma in nu/nu CD1 mouse xenografted with U87MG tumor at 3 mg/kg, po administered as single dose measured upto 16 hrs; type: ADME, organism-based; parameters: dose 3 mg/kg, route oral; settings: tumor and plasma
[7] = system: Rattus norvegicus; test: Liver blood flow in iv dosed Sprague-Dawley rat; type: ADME, organism-based; settings: in vivo
[8] = Antitumor activity against human U87MG tumor xenografted in nu/nu CD1 mouse assessed as inhibition of tumor growth at 1 mg/kg, po qd; type: functional, U-87MG ATCC; settings: U-87 MG, read-out: GI
[9] = biological target: Phosphatidylinositol 4,5-bisphosphate 3-kinase catalytic subunit beta isoform (Homo sapiens, UniProt P42338); test: Inhibition of human N-terminal His-tagged PI3Kbeta expressed in insect Sf9 cells using PI(4,5)P2 as substrate after 20 mins by alphascreen assay in presence of 20 uM ATP
[10] = Clearance in iv dosed Sprague-Dawley rat; type: ADME, organism-based; settings: in vivo
[11] = system: Mus musculus; test: In vivo inhibition of PI3Kalpha-mediated Akt phosphorylation in nu/nu CD1 mouse xenografted with U87MG tumor; type: functional, organism-based; settings: CD1, U-87 MG
[12] = Ratio of drug level in tumor to plasma in nu/nu CD1 mouse xenografted with U87MG tumor at 1 mg/kg, po administered as single dose measured upto 8 hrs; type: ADME, organism-based; parameters: dose 1 mg/kg, route oral; settings: tumor and plasma
[13] = system: Mus musculus; test: Toxicity in nu/nu CD1 mouse xenografted with human U87MG cells assessed as weight loss at 3 mg/kg, po relative to control; type: organism-based, U-87MG ATCC; parameters: dose 3 mg/kg, route oral; settings: in vivo
[14] = Antitumor activity against human U87MG tumor xenografted in po dosed nu/nu CD1 mouse assessed as tumor growth delay; type: functional, U-87MG ATCC; settings: U-87 MG
[15] = AUC (0 to 24 hrs) in plasma of nu/nu CD1 mouse xenografted with human U87MG cells at ED50; type: ADME, organism-based, U-87MG ATCC; parameters: time < 24 hr
[16] = system: Plasma; test: Plasma EC50 for pAkt inhibition in nu/nu CD1 mouse xenografted with U87 MG tumor
[17] = AUC in Sprague-Dawley rat at 2 mg/kg, po; type: ADME, organism-based; parameters: dose 2 mg/kg, route oral; settings: plasma
[18] = biological target: Phosphatidylinositol 4,5-bisphosphate 3-kinase catalytic subunit gamma isoform (Homo sapiens, UniProt P48736); test: Inhibition of human N-terminal His-tagged PI3Kgamma expressed in insect Sf9 cells using PI(4,5)P2 as substrate after 20 mins by alphascreen assay in presence of 8 uM ATP
[19] = Volume of distribution in iv dosed Sprague-Dawley rat; type: ADME, organism-based; settings: in vivo
[20] = organism: Mus musculus; test: Liver blood flow in mouse; type: ADME, organism-based
[21] = Clearance in Beagle dog liver microsomes; type: ADME, Canis lupus familiaris, Microsome
[22] = in vitro; settings: Sprague-Dawley, rat, liver microsomes
Description: Clearance in Sprague-Dawley rat liver microsomes

[23] = organism: Canis familiaris; test: Liver blood flow in Beagle dog; type: ADME, organism-based, Canis lupus familiaris
[24] = organism: Rattus norvegicus; test: Liver blood flow in Sprague-Dawley rat; type: ADME, organism-based
[25] = Clearance in mouse liver microsomes; type: ADME, Microsome
[26] = in vitro; settings: human, liver microsomes
Description: Clearance in human liver microsomes

[27] = Clearance in cynomolgus monkey liver microsomes; type: ADME, Macaca fascicularis, Microsome

Phosphatidylinositol 4,5-bisphosphate 3-kinase catalytic subunit alpha isoform, sequence (P42336 whole entry, canonical isoform): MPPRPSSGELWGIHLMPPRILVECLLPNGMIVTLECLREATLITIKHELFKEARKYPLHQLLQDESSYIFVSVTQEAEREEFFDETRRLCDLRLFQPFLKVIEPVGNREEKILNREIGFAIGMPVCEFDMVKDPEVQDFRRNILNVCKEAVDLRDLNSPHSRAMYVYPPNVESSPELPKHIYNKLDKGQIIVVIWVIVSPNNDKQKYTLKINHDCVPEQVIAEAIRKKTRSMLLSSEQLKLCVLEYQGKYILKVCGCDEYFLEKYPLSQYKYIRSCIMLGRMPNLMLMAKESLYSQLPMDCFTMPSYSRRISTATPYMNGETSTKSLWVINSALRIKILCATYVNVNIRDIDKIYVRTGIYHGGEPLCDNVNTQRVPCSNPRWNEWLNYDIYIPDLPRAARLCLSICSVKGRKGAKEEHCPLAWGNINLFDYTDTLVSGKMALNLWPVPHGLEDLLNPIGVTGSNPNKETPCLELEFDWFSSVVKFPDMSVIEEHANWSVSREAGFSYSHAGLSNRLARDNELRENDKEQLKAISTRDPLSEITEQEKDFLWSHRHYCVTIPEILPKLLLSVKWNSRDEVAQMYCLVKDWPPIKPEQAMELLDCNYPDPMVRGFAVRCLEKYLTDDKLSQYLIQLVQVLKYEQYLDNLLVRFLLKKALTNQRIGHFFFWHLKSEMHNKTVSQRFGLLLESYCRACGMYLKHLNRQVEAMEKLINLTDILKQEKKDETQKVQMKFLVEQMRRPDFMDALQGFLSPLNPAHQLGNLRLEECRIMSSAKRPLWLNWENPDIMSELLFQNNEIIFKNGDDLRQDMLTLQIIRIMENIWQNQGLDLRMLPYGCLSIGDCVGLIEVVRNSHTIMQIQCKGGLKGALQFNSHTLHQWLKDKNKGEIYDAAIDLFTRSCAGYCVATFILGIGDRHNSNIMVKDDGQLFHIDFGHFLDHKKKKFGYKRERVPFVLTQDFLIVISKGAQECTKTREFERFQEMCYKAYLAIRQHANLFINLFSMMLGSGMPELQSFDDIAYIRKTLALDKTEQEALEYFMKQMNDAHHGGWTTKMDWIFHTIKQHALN
Phosphatidylinositol 4,5-bisphosphate 3-kinase catalytic subunit beta isoform, sequence (P42338 whole entry, canonical isoform): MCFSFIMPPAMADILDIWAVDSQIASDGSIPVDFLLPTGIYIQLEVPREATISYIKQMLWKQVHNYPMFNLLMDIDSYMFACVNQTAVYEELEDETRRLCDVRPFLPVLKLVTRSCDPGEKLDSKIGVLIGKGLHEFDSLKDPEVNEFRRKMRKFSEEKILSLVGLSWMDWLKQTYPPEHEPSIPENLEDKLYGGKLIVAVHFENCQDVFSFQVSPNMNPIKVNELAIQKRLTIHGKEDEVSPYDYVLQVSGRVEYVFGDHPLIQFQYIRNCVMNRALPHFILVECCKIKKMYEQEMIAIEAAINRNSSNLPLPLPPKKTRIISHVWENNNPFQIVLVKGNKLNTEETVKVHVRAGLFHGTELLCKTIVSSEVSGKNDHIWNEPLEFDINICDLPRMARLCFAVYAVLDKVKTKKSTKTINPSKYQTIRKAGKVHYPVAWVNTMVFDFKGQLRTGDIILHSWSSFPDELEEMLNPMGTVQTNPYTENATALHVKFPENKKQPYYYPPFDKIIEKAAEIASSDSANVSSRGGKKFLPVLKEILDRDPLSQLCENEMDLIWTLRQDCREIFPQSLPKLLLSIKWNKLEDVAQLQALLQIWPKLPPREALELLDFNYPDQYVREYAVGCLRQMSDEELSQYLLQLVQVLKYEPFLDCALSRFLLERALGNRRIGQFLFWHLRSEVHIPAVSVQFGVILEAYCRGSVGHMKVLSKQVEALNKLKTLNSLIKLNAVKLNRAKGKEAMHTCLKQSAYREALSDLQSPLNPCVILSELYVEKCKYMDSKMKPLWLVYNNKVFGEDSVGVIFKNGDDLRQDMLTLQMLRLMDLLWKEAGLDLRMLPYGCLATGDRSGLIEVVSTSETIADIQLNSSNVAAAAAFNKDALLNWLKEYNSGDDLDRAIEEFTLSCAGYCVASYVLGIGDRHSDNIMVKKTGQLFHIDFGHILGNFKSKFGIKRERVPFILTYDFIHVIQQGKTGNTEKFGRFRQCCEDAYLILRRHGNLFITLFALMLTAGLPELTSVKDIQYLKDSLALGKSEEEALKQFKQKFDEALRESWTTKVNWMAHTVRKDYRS
Phosphatidylinositol 4,5-bisphosphate 3-kinase catalytic subunit gamma isoform, sequence (P48736 whole entry, canonical isoform): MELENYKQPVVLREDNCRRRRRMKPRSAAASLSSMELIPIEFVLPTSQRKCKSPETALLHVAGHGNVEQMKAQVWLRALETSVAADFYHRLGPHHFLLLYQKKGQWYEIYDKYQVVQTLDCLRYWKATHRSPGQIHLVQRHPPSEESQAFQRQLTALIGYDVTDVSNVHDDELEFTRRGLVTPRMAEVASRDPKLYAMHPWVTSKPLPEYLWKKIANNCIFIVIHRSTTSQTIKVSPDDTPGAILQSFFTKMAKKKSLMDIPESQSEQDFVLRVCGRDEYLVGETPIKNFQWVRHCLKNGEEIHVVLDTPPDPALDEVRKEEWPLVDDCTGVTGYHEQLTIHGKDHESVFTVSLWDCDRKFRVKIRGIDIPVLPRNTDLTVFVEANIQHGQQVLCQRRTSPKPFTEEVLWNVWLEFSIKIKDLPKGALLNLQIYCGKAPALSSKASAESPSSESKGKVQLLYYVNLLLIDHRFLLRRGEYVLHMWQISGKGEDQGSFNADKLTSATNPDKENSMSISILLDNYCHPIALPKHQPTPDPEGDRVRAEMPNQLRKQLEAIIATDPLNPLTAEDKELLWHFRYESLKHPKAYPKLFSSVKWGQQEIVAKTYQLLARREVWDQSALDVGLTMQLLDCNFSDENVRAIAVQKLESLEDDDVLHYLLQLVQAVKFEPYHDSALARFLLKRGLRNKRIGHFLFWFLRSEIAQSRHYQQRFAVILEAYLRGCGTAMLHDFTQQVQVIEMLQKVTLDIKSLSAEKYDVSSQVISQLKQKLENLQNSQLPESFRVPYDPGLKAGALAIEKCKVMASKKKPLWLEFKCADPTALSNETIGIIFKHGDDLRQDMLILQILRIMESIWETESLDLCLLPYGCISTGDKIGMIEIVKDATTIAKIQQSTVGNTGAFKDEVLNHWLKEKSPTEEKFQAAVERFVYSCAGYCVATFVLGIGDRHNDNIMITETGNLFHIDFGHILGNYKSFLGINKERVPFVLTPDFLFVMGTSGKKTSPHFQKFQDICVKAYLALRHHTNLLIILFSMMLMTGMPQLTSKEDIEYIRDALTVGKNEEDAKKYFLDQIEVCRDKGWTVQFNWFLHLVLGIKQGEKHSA

| Compound | IC50 [1] | Ki [2] | further results |
| --- | --- | --- | --- |
| O=S(=O)(Nc1cc(-c2ccc3nccn3n2)cnc1Cl)c1ccc(F)cc1 | 49 nM | 6.1 nM | – |
| CC(=O)Nc1nc2ccc(-c3cnc(Cl)c(NS(=O)(=O)c4ccc(F)cc4)c3)cc2[nH]1 | 20 nM | 3.3 nM | – |
| O=S(=O)(Nc1cc(-c2ccc3ncoc3c2)cnc1Cl)c1ccc(F)cc1 | 76 nM | 26 nM | – |
| Nc1cn2cc(-c3cnc(Cl)c(NS(=O)(=O)c4ccc(F)cc4)c3)ccc2n1 | 20 nM | 2.8 nM | – |
| O=S(=O)(Nc1cc(-c2ccc3nc[nH]c3c2)cnc1Cl)c1ccc(F)cc1 | 446 nM | 68 nM | – |
| CC(=O)Nc1cn2cc(-c3cnc(Cl)c(NS(=O)(=O)c4ccc(F)cc4)c3)ccc2n1 | 6.6 nM | 1.2 nM | – |
| CC(=O)Nc1cn2nc(-c3cnc(Cl)c(NS(=O)(=O)c4ccc(F)cc4)c3)ccc2n1 | 0.4 nM | 1.4 nM | Ki [3]: 0.8 nM; half-life [4]: 7 h; bioavailability [5]: 46%; Kp at 16 h [6]: 0.27; QH [7]: 1.2%; inhibition in vivo at 1 mg/kg [8]: 49%; Ki [9]: 3.5 nM; clearance [10]: 0.667 mL/min/kg; EC50 [11]: 0.232 µg/mL (≈ 0.503 µM); Kp at 8 h [12]: 0.13; Activity [13]: < 5%; ED50 [14]: 0.7 mg/kg; AUC(0-t) at 24 h [15]: 9200 ng·h/mL; EC50 [16]: 500 nM; AUC [17]: 11500 ng·h/mL; Ki [18]: 1.9 nM; Vd [19]: 0.27 L/kg |
| Nc1nc2ccc(-c3cnc(Cl)c(NS(=O)(=O)c4ccc(F)cc4)c3)cc2[nH]1 | 430 nM | 119 nM | – |
| CC(=O)Nc1nc2ccc(-c3cnc(Cl)c(NS(=O)(=O)c4ccc(F)cc4)c3)cc2o1 | 146 nM | 47 nM | – |
| CC(=O)Nc1nc2ccc(-c3cnc(Cl)c(NS(=O)(=O)c4ccc(F)cc4)c3)cc2s1 | – | – | QH [20]: 0.2%; microsomal CLint [21]: < 26 µL/min/mg; microsomal CLint [22]: < 26 µL/min/mg; QH [23]: 0.2%; QH [24]: 0.2%; microsomal CLint [25]: < 26 µL/min/mg; microsomal CLint [26]: < 26 µL/min/mg; microsomal CLint [27]: < 26 µL/min/mg |
| Nc1nc2ccc(-c3cnc(Cl)c(NS(=O)(=O)c4ccc(F)cc4)c3)cc2s1 | 24 nM | – | – |
| Nc1nc2ccc(-c3cnc(Cl)c(NS(=O)(=O)c4ccc(F)cc4)c3)cc2o1 | 70 nM | 7.2 nM | – |
| O=S(=O)(Nc1cc(-c2ccc3sncc3c2)cnc1Cl)c1ccc(F)cc1 | 292 nM | 76 nM | – |
| O=S(=O)(Nc1cc(-c2ccc3nncn3c2)cnc1Cl)c1ccc(F)cc1 | > 25000 nM | 51 nM | – |
| O=S(=O)(Nc1cc(-c2ccc3nccn3c2)cnc1Cl)c1ccc(F)cc1 | 229 nM | 23 nM | – |
| Nc1cn2nc(-c3cnc(Cl)c(NS(=O)(=O)c4ccc(F)cc4)c3)ccc2n1 | 35 nM | 11 nM | – |
| O=S(=O)(Nc1cc(-c2ccc3ncsc3c2)cnc1Cl)c1ccc(F)cc1 | 33 nM | – | – |
